Experimental data as given in patent US7872016B2, “Method for treating skeletal disorders resulting from FGFR malfunction” (Yale University, priority 2004, dated 2011).
Entries after “also recorded” stand apart in the source; their conditions may differ.

Tests used:
FRS2α [1] = details: unstimulated cells treated with the MEK inhibitor; cited from earlier work
[2] = test system: wild type suture (calvaria); assay: Calvaria organ culture, wild type mice: suture development; assay type: cell-based, mouse; details: for normal development of the sutures in the wild type: cultured 21 days
Description: (§1) FIGS. 15A-15D show results of in vitro culture of calvaria with FGFR inhibitor PLX052. Calvaria harvested from the Crouzon mutant and wild type E18.5 day old embryos were cultured in DMEM medium containing 10% FCS supplemented with ascorbic acid at 100 μg/ml and 1 μM PLX052 in 24 well plates. Medium was changed on alternate days along with the inhibitor. Controls were cultured with the vehicle only (0.2% DMSO). Calvaria were cultured for 14 days. After the specified time, calvaria were fixed in 10% buffered formalin, dehydrated followed by infiltration and embedding in methylmethacrylate plastic. Blocks were cut perpendicular to the coronal suture, that passes through the frontal bone (anterior side) and the parietal bone (posterior side). […] sections were collected and stained with toludine blue (FIG. 15.2, left panels). Adjacent sections were stained for minerals of the bone matrix using Van Kossa followed by methyl green counter staining. (A) wild type, and (B), mutant calvaria cultured with the vehicle alone (0.2% DMSO). Note the open suture in the wild type (A) and the fused suture in the mutant (B) cultured calvaria. (C), wild type and (D), mutant cultured with 1 μM PLX052 (in 0.2% DMSO). The left panels [(i), (iii)] are toluidine blue staining and the right panels [(ii), (iv)] are Van Kossa with methyl green counter staining. Lower panels [(iii), (iv)] are the higher magnification of the sutures shown in the boxed region of the upper panels [(i), (ii)].
(§2) PLX052 prevents cranial suture fusion in vitro. Next, we tested the ability of the PLX052 to prevent craniosynostosis in calvaria organ culture from wt and Crouzon-like mutant mice (FIG. 15). […] The calavria organ culture experiments were repeated with two different concentrations of PLX052 (1 μM and 5 μM) and cultured for extended period of time (21 days) to assess the dose response for this inhibitor (see below). […] Higher concentrations of PLX052 (50 μM and above) have caused extensive cell death within 24 hours in cultured cells. […]

MAP Kinase signaling = MAP Kinase signaling in mutant cells expressing constitutively activated Crouzon-like mutant Fgfr2c isoform; assay type: cell-based; details: results not shown
Description: (§3) We first tested the effect of PLX052 in vitro for blocking the activation of FGFR2. Cells were pretreated for 5 minutes with the compound before stimulation. […] We further tested the ability of PLX052 in blocking the FRS2 phosphorylation in mutant cells expressing constitutively activated Crouzon-like mutant Fgfr2c isoform.

FRS2α [3] = assay: FRS2 phosphorylation in mutant cells expressing constitutively activated Crouzon-like mutant Fgfr2c isoform; assay type: cell-based; details: results not shown
Description: as §3

cultured cells = assay: Cell death in cultured cells; assay type: cell-based; details: within 24 hours
Description: PLX052 prevents cranial suture fusion in vitro. Next, we tested the ability of the PLX052 to prevent craniosynostosis in calvaria organ culture from wt and Crouzon-like mutant mice (FIG. 15). […] The calavria organ culture experiments were repeated with two different concentrations of PLX052 (1 μM and 5 μM) and cultured for extended period of time (21 days) to assess the dose response for this inhibitor (see below). […] Higher concentrations of PLX052 (50 μM and above) have caused extensive cell death within 24 hours in cultured cells. Therefore, it is feasible to use limited amount of inhibitor to attenuate the abnormal signaling from the mutant receptors without causing adverse effect on the normal signaling pathways.

[4] = test system: coronal suture of Crouzon-like mutant mice calvaria; assay: Calvaria organ culture, Crouzon-like mutant mice: coronal suture fusion; assay type: cell-based, mouse; details: for premature fusion of coronal suture of mutant mice calvaria: cultured 21 days
Description: as §1, §2

FGFR2 = target: T1, FGFR2 (Mus musculus, UniProt P21803); assay: Blocking ligand-stimulated tyrosine autophosphorylation of FLAG-tagged FGFR2 in 3T3 cells (IP / anti-pTyr immunoblot); assay type: cell-based; details: 3T3 cells pretreated 5 minutes, then ligand stimulated 5 minutes at 37° C.
T1 construct: expressed in transfected cells; host or cells: 3T3 cells
Description: FIGS. 14A-D show pharmacological intervention in FGFR activation. (C) Structure of [4-(3,5-difluorophenyl)-1H-pyrrolo[2,3-b]pyridin-3-yl](3-methoxyphenyl)methanone (PLX052). (D) 3T3-cells treated for 5 minutes with PLX052 were ligand stimulated for 5 minutes at 37° C. Cell lysates were subjected to immunoprecipitation with anti-FLAG tag antibodies (the expression vector contains a tag in the c-terminus of FGFR2) followed by immunoblotting with either anti-phosphotyrosine (pTyr) or anti-FLAG antibodies. (A & B) Crystals of the apo-FGFR1 minimal kinase domain were grown at 4° C. by vapor diffusion in hanging drops containing 2 uL of 12 mg/mL protein solution and 2 uL of reservoir solution: 16% PEG8K, 0.25 M (NH4)2SO4, 5% ethylene glycol, 10 mM DTT, and 0.1 M Bis Tris, pH 5.8. Native crystals were soaked overnight at 4° C. in mother liquor containing 2 mM PLX052 and 5% DMSO. Complexed crystal belongs to monoclinic space group C2 and has unit cell dimensions a=211.9 Å, b=49.7 Å, c=66.2 Å, and β=107.4°. One cryo-cooled crystal was used for data collection, and data was collected at beamline X26 at Brookhaven National Laboratory. Co-crystallization of the kinase with PLX052 was also performed and found the same structural result. […] The nucleotide binding loop is shown in blue, the hinge region in magenta, and the catalytic core in yellow. (A) The side chains that interact with PLX052. […]

[5] = 1 μM, E18.5 calvaria cultured 14 days

T1 sequence (P21803 22-821): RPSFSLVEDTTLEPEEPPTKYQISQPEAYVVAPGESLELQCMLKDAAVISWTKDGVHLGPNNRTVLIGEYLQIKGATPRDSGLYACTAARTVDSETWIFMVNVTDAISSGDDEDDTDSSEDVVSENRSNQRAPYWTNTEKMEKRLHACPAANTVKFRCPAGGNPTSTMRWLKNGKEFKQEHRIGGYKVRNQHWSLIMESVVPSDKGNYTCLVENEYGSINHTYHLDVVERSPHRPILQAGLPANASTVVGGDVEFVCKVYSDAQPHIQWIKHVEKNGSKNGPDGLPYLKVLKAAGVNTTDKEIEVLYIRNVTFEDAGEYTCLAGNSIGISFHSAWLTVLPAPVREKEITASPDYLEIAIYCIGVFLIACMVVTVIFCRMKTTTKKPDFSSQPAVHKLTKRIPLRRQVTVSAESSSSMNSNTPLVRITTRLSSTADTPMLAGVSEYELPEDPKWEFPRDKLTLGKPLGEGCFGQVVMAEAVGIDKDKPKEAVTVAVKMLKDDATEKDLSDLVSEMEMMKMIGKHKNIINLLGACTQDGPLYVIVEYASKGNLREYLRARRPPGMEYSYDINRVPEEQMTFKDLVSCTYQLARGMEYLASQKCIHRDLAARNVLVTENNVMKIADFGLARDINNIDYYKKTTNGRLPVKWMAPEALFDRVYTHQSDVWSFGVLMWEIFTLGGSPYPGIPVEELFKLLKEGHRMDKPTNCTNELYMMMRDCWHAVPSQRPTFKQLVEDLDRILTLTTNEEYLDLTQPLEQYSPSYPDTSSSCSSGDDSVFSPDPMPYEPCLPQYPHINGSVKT

SMILES | tyrosine phosphorylation of FRS2α (FRS2α [1]) | growth of the wild type suture [2, 5] | normal development of the sutures in the wild type ([2]; 1 μM) | normal development of the sutures in the wild type ([2]; 5 μM) | MAP Kinase signaling (MAP Kinase signaling) | phosphorylation of FRS2α (FRS2α [3]) | concentration causing extensive cell death (cultured cells) | premature fusion of coronal suture in mutant calvaria in vitro [4, 5] | premature fusion of coronal suture of mutant mice calvaria ([4]; 1 μM) | premature fusion of coronal suture of mutant mice calvaria ([4]; 5 μM) | concentration that inhibits FGFR activation to basal levels (tyrosine autophosphorylation of FGFR2) (FGFR2)
COc1cccc(-c2cc(=O)c3ccccc3o2)c1N [PD 0980089] | leads to constitutive tyrosine phosphorylation of FRS2α |  |  |  |  |  |  |  |  |  | 
COc1cccc(C(=O)c2c[nH]c3nccc(-c4cc(F)cc(F)c4)c23)c1 [PLX052, [4-(3,5-difluorophenyl)-1H-pyrrolo[2,3-b]pyridin-3-yl](3-methoxyphenyl)methanone] |  | did not affect the growth of the wild type suture | without affecting the normal development of the sutures in the wild type | without affecting the normal development of the sutures in the wild type | attenuated MAP Kinase signaling | significant reduction in the phosphorylation of FRS2α | ≥ 50 µM | able to rescue the premature fusion of coronal suture; also recorded: open suture in the mutant cultured with PLX052 | able to prevent the premature fusion of coronal suture | able to prevent the premature fusion of coronal suture | 10 µM
